According to patent publication US10662221B2, “Cystargolide compounds and uses thereof” (UNIVERSITY OF PRINCE EDWARD ISLAND, priority 2015, dated 2020):
Values joined by “and” are separate entries in the source; they are usually repeats but may differ in a detail not shown here. Equal entries are not always repeated.

Experiments:
[1] = Stability in mild acidic conditions; type: physicochemical; settings: resulting in polymerization
Text: The fifth degree of unsaturation was attributed to cyclization. Two options were therefore available; a macrolactone cyclization between C-1 and the C-2″ hydroxyl, or a β-lactone between C-4″ and the C-2″ hydroxyl. The presence of IR absorption at 1835 cm^−1 was characteristic of a β-lactone carbonyl stretching band and therefore strongly supports cyclization between C-4″ and the hydroxyl at C-2″. The lack of HMBC correlation between H-2″ and C-1 also supported a β-lactone cyclization. The presence of the β-lactone was further confirmed by the instability of 1 in mild acidic conditions resulting in polymerization. The relative configuration at the C-2″ and C-3″ positions on the β-lactone moiety was determined from an analysis of the ^3JHH values.

human 20S proteasome = target: T1, human 20S proteasome (Homo sapiens, UniProt P28074); test: 20S proteasome inhibition assay (chymotrypsin-like activity, Suc-LLVY-AMC cleavage); type: biochemical; settings: purified human erythrocyte 20S proteasome 3 μg/mL, Suc-LLVY-AMC 75 μM, 30° C., 10 min preincubation, triplicate ± SD
T1 construct: purified human erythrocyte 20S proteasome; purchased Enzo Life Sciences BML-PW8720-0020; host or cells: purified from human erythrocytes (native tissue material)
Method: Varying concentrations of 1 and 2 were incubated with purified human 20S proteasome. To determine the chymotrypsin-like activity, the fluorogenic substrate Suc-LLVY-AMC was added and fluorescence was recorded to measure the rate of enzyme activity.
1 and 2 were tested for proteasome inhibition using purified human erythrocyte 20S proteasome (Enzo Life Sciences: BML-PW8720-0020). 20S proteasome was diluted to a final concentration of 3 μg/mL in assay buffer (50 mM Tris/HCl, pH 7.5, 25 mM KCl, 10 mM NaCl, 1 mM MgCl2, and 0.03% SDS), and incubated with inhibitors at varying concentrations at 30° C. for 10 minutes. To determine the chymotrypsin-like activity, the reaction was initiated by the addition of the fluorogenic substrate Suc-LLVY-AMC (Enzo Life Sciences, BML-9802-9090) at a final concentration of 75 μM. The rate of cleavage of the substrate was determined by measuring fluorescence using a Spectra Max M2 (Molecular Devices) plate reader at an excitation wavelength of 360 nm and emission of 460 nm. The fluorescence was recorded every 15 seconds for 30 minutes, and the linear regression between 15 and 30 minutes were used to calculate the rate of substrate cleavage (AFU/s). Control wells were included that contained no inhibitor to show the maximum substrate cleavage rate, epoxomicin (0.5 μM) and no enzyme (Blank) to show the minimum response. The IC50 values, the concentration required to reduce the enzyme response by 50 percent, were calculated by Prism 6.0 (GraphPad Software) using a nonlinear regression dose-response, variable slope model based on triplicate measurements±standard deviation.

rabbit 20S proteasome = settings: read-out: IC50, inhibition of chymotrypsin-like activity of the rabbit 20S proteasome; cited from earlier work

CCC(C)[C@H](NC(=O)[C@@H](NC(=O)C1OC(=O)C1C(C)C)C(C)C)C(=O)O (some centres unmarked) [Compound 1, Cystargolide A]
stability in mild acidic conditions [1]: instability
IC50 (human 20S proteasome): 360 nM and 350 nM

CC(C)C1C(=O)OC1C(=O)N[C@H](C(=O)N[C@H](C(=O)O)C(C)C)C(C)C (some centres unmarked) [Compound 2, Cystargolide B]
IC50 (human 20S proteasome): 930 nM

belactosin A
IC50 (rabbit 20S proteasome): 210 nM

belactosin C
IC50 (rabbit 20S proteasome): 210 nM
